From patent US20260374766A1, “METHODS FOR TREATING CANCER” (Antares Therapeutics, Inc., priority 2022, published 2026)
Where two headings read alike, the source gives them in different places.

How the values were obtained:
p53 Y220C = p53 Y220C (Homo sapiens, UniProt P04637, Y220C); experiment: Luciferase Reporter Assay (Luc), p53 response element, NClH1299 cells with inducible p53 Y220C; format: cell-based; conditions: 6 hour; for AC50: read-out: Luc P53 Y220C AC50
Method in brief: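 Steps: seed 5,000 cells/well; induce mutant p53 with 0.5 ug/mL doxycycline for 24 h; treat with compound 6 h; add equal volume One-Glo, shake 5 min at room temperature; measure luciferase immediately.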

H1299 p53 Y220C = experiment: Cell Proliferation Assay (CellTiter-Glo, CTG), H1299 p53 Y220C (NClH1299-inducible p53 Y220C); format: cell-based; conditions: Homo sapiens, NCI-H1299, 120 h, NClH1299-inducible p53 Y220C cells, 5 days
Method in brief: (§1)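 NClH1299 lines stably transduced with Tet-inducible p53 Y220C or R273H, plus NUGC3, were treated with compound for 5 days at 250-500 cells/well. IC50 derived from CellTiter-Glo luminescent signal after 10 min room-temperature incubation.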

NUGC3 p53 Y220C = experiment: Cell Proliferation Assay (CellTiter-Glo, CTG), NUGC3 p53 Y220C; format: cell-based; conditions: Homo sapiens, NUGC-3, 120 h, NUGC3 cells, 5 days
Method in brief: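 Tet-One inducible p53 Y220C or R273H constructs were stably introduced into NCI-H1299 by lentiviral transduction; NUGC3 was used as is. Cells (250-500 per well) were exposed to compound for 5 days, then CellTiter-Glo was added for 10 min at room temperature and IC50 was calculated from luminescence.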

H1299 p53 R273H = experiment: Cell Proliferation Assay (CellTiter-Glo, CTG), H1299 p53 R273H (NClH1299-inducible p53 R273H); format: cell-based; conditions: Homo sapiens, NCI-H1299, 120 h, NClH1299-inducible p53 R273H cells, 5 days
Method in brief: as §1

[1] = target: T1, p53 Y220C mutant protein (amino acid residues 94-293) (Homo sapiens, UniProt P04637, Y220C); experiment: Surface Plasmon Resonance (SPR) assay, Kd_kinetic; format: binding; conditions: SPR; p53 Y220C; read-out: SPR P53 Y220C KD kinetic
T1 construct: p53 Y220C mutant protein (amino acid residues 94-293)
Method in brief: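 Biacore 8K SPR; 16 or 20 °C; Tris 50 mM pH 7.5, NaCl 100 mM, DTT 1 mM, Brij35 0.01%, Tween-20 0.05%, DMSO 1%. Kd_kinetic by 1:1 fit.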

[2] = luciferase reporter, NClH1299 inducible p53 Y220C
[3] = NClH1299 cells with inducible p53 Y220C
[4] = NClH1299 cells with inducible p53 Y220C, 10 uM tool compound as positive control

T1 sequence (P04637 94-293, stated change not applied): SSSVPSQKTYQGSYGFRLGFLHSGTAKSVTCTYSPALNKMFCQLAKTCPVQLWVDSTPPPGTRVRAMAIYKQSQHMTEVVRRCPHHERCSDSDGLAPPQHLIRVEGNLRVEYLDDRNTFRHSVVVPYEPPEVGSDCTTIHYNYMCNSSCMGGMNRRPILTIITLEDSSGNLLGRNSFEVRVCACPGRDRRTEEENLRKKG

Compound: CNC(=O)c1ccc(NCC#Cc2cc3c(N[C@@H]4CCN(C)C[C@@H]4F)cccn3c2SC(F)(F)F)c(C(F)F)c1 [Example 450, 3-(difluoromethyl)-4-{[3-(8-{[(3S,4R)-3-fluoro-1-methylpiperidin-4-yl]amino}-3-[(trifluoromethyl)sulfanyl]indolizin-2-yl)prop-2-yn-1-yl]amino}-N-methylbenzamide]
- AC50 (p53 Y220C; [2]): < 750 nM
- Emax (p53 Y220C; [2]): > 90%
- IC50 (H1299 p53 Y220C; CellTiter-Glo): < 750 nM
- IC50 (NUGC3 p53 Y220C; CellTiter-Glo): < 750 nM
- IC50 (H1299 p53 R273H; CellTiter-Glo): ≥ 10000 nM
- Kd [1]: < 10 nM

Compound: COc1cc(C(=O)O)ccc1NCC#Cc1cc2c(N[C@@H]3CCN(C)C[C@@H]3F)cccn2c1SC(F)(F)F [Example 451]
- AC50 (p53 Y220C; [2]): < 750 nM
- Emax (p53 Y220C; [2]): > 90%
- IC50 (H1299 p53 Y220C; CellTiter-Glo): < 750 nM
- IC50 (NUGC3 p53 Y220C; CellTiter-Glo): < 750 nM
- IC50 (H1299 p53 R273H; CellTiter-Glo): ≥ 10000 nM
- Kd [1]: < 10 nM

Compound: CN1CC[C@@H](Nc2cccn3c(SC(F)(F)F)c(C#CCNc4ccc(P(C)(C)=O)c5ccoc45)cc23)[C@@H](F)C1 [Example 452]
- AC50 (p53 Y220C; [2]): < 750 nM
- Emax (p53 Y220C; [2]): > 90%
- IC50 (H1299 p53 Y220C; CellTiter-Glo): < 750 nM
- IC50 (NUGC3 p53 Y220C; CellTiter-Glo): < 750 nM
- IC50 (H1299 p53 R273H; CellTiter-Glo): < 5000 nM
- Kd [1]: < 10 nM

Compound: CN1CC[C@@H](Nc2cccn3c(SC(F)(F)F)c(C#CCNc4ccc(C(=O)NC[C@@H]5CCO5)cc4)cc23)[C@@H](F)C1 [Example 453]
- AC50 (p53 Y220C; [2]): < 750 nM
- Emax (p53 Y220C; [2]): > 90%
- IC50 (H1299 p53 Y220C; CellTiter-Glo): < 750 nM
- IC50 (NUGC3 p53 Y220C; CellTiter-Glo): < 750 nM
- IC50 (H1299 p53 R273H; CellTiter-Glo): ≥ 10000 nM
- Kd [1]: < 10 nM

Compound: CNC(=O)c1ccc(NCC#Cc2cc3c(N[C@@H]4CCNC[C@@H]4F)cccn3c2SC(F)(F)F)c(O)c1 [Example 455, 4-{[3-(8-{[(3S,4R)-3-fluoropiperidin-4-yl]amino}-3-[(trifluoromethyl)sulfanyl]indolizin-2-yl)prop-2-yn-1-yl]amino}-3-hydroxy-N-methylbenzamide]
- AC50 (p53 Y220C; [3]): < 750 nM
- Emax (p53 Y220C; [4]): 80 to 90%
- IC50 (H1299 p53 Y220C): < 750 nM
- IC50 (NUGC3 p53 Y220C): < 750 nM
- IC50 (H1299 p53 R273H): 5000 to 8000 nM
- Kd [1]: < 10 nM

Compound: COc1ccc(C(=O)N[C@@H](C)[C@H](C)O)cc1NCC#Cc1cc2c(N[C@@H]3CCN(C)C[C@@H]3F)cccn2c1SC(F)(F)F [Example 456]
- AC50 (p53 Y220C; [3]): < 750 nM
- Emax (p53 Y220C; [4]): > 90%
- IC50 (H1299 p53 Y220C): < 750 nM
- IC50 (NUGC3 p53 Y220C): < 750 nM
- IC50 (H1299 p53 R273H): ≥ 10000 nM
- Kd [1]: < 10 nM

Compound: CN1CC[C@@H](Nc2cccn3c(SC(F)(F)F)c(C#CCNc4ccc(C(=O)NCC(C)(C)O)cc4)cc23)[C@@H](F)C1 [Example 457]
- AC50 (p53 Y220C; [3]): < 750 nM
- Emax (p53 Y220C; [4]): > 90%
- IC50 (H1299 p53 Y220C): < 750 nM
- IC50 (NUGC3 p53 Y220C): < 750 nM
- IC50 (H1299 p53 R273H): 8000 to 10000 nM
- Kd [1]: < 10 nM

Compound: CN1CC[C@@H](Nc2cccn3c(SC(F)(F)F)c(C#CCNc4ccc(C(=O)NC[C@H](O)CO)cc4)cc23)[C@@H](F)C1 [Example 460]
- AC50 (p53 Y220C; [3]): < 750 nM
- Emax (p53 Y220C; [4]): > 90%
- IC50 (H1299 p53 Y220C): < 750 nM
- IC50 (NUGC3 p53 Y220C): < 750 nM
- IC50 (H1299 p53 R273H): ≥ 10000 nM
- Kd [1]: < 10 nM

Compound: COc1ccc(C(=O)NC[C@@H](O)CO)cc1NCC#Cc1cc2c(N[C@@H]3CCN(C)C[C@@H]3F)cccn2c1SC(F)(F)F [Example 462]
- AC50 (p53 Y220C; [3]): < 750 nM
- Emax (p53 Y220C; [4]): > 90%
- IC50 (H1299 p53 Y220C): < 750 nM
- IC50 (NUGC3 p53 Y220C): < 750 nM
- IC50 (H1299 p53 R273H): ≥ 10000 nM
- Kd [1]: < 10 nM

Compound: CNC(=O)c1ccc(OC2COC2)c(NCC#Cc2cc3c(N[C@@H]4CCNC[C@@H]4F)cccn3c2SC(F)(F)F)n1 [Example 463]
- AC50 (p53 Y220C; [3]): < 750 nM
- Emax (p53 Y220C; [4]): > 90%
- IC50 (H1299 p53 Y220C): < 750 nM
- IC50 (NUGC3 p53 Y220C): < 750 nM
- IC50 (H1299 p53 R273H): ≥ 10000 nM
- Kd [1]: < 10 nM

Compound: COc1cc(C(N)=O)ccc1NCC#Cc1cc2c(N[C@@H]3CCN(C)C[C@@H]3F)cccn2c1SC(F)(F)F [Example 464]
- AC50 (p53 Y220C; [3]): < 750 nM
- Emax (p53 Y220C; [4]): > 90%
- IC50 (H1299 p53 Y220C): < 750 nM
- IC50 (NUGC3 p53 Y220C): < 750 nM
- IC50 (H1299 p53 R273H): ≥ 10000 nM
- Kd [1]: < 10 nM

Compound: CN1CC[C@@H](Nc2cccn3c(SC(F)(F)F)c(C#CCNc4ccc(C(=O)N[C@H]5C[C@@H](O)C5)cc4)cc23)[C@@H](F)C1 [Example 465]
- AC50 (p53 Y220C; [3]): < 750 nM
- Emax (p53 Y220C; [4]): > 90%
- IC50 (H1299 p53 Y220C): < 750 nM
- IC50 (NUGC3 p53 Y220C): < 750 nM
- IC50 (H1299 p53 R273H): ≥ 10000 nM
- Kd [1]: < 10 nM

Compound: CNC(=O)c1ccc(NCC#Cc2cc3c(N[C@@H]4CCN(C)C[C@@H]4F)cccn3c2SC(F)(F)F)c(Cl)c1 [Example 466, 3-chloro-4-{[3-(8-{[(3S,4R)-3-fluoro-1-methylpiperidin-4-yl]amino}-3-[(trifluoromethyl)sulfanyl]indolizin-2-yl)prop-2-yn-1-yl]amino}-N-methylbenzamide]
- AC50 (p53 Y220C; [3]): < 750 nM
- Emax (p53 Y220C; [4]): 80 to 90%
- IC50 (H1299 p53 Y220C): < 750 nM
- IC50 (NUGC3 p53 Y220C): < 750 nM
- IC50 (H1299 p53 R273H): ≥ 10000 nM
- Kd [1]: < 10 nM

Compound: COc1ccc(C(=O)N[C@H](C)[C@H](C)O)cc1NCC#Cc1cc2c(N[C@@H]3CCN(C)C[C@@H]3F)cccn2c1SC(F)(F)F [Example 468]
- AC50 (p53 Y220C; [3]): < 750 nM
- Emax (p53 Y220C; [4]): > 90%
- IC50 (H1299 p53 Y220C): < 750 nM
- IC50 (NUGC3 p53 Y220C): < 750 nM
- IC50 (H1299 p53 R273H): 8000 to 10000 nM
- Kd [1]: < 10 nM

Compound: CNC(=O)c1ccc(NCC#Cc2cc3c(N[C@@H]4CCN(C)C[C@@H]4F)cccn3c2SC(F)(F)F)c(O)c1 [Example 469, 4-{[3-(8-{[(3S,4R)-3-fluoro-1-methylpiperidin-4-yl]amino}-3-[(trifluoromethyl)sulfanyl]indolizin-2-yl)prop-2-yn-1-yl]amino}-3-hydroxy-N-methylbenzamide]
- AC50 (p53 Y220C; [3]): < 750 nM
- Emax (p53 Y220C; [4]): > 90%
- IC50 (H1299 p53 Y220C): < 750 nM
- IC50 (NUGC3 p53 Y220C): < 750 nM
- IC50 (H1299 p53 R273H): 5000 to 8000 nM
- Kd [1]: < 10 nM

Compound: [2H]C([2H])([2H])Oc1ccc(C(=O)NC)cc1NCC#Cc1cc2c(N[C@@H]3CCN(C)C[C@@H]3F)nccn2c1SC(F)(F)F [Example 470, 3-((3-(1-(((3S,4R)-3-fluoro-1-methylpiperidin-4-yl)amino)-6-((trifluoromethyl)thio)pyrrolo[1,2-a]pyrazin-7-yl)prop-2-yn-1-yl)amino)-4-(methoxy-d3)—N-methylbenzamide]
- AC50 (p53 Y220C; [3]): < 750 nM
- Emax (p53 Y220C; [4]): > 90%
- IC50 (H1299 p53 Y220C): < 750 nM
- IC50 (NUGC3 p53 Y220C): < 750 nM
- IC50 (H1299 p53 R273H): ≥ 10000 nM
- Kd [1]: < 10 nM

Compound: COc1ccc(C(=O)N[C@H]2C[C@@H](O)C2)cc1NCC#Cc1cc2c(N[C@@H]3CCN(C)C[C@@H]3F)cccn2c1SC(F)(F)F [Example 471]
- AC50 (p53 Y220C; [3]): < 750 nM
- Emax (p53 Y220C; [4]): > 90%
- IC50 (H1299 p53 Y220C): < 750 nM
- IC50 (NUGC3 p53 Y220C): < 750 nM
- IC50 (H1299 p53 R273H): ≥ 10000 nM
- Kd [1]: < 10 nM
